Test results as given in patent US10647671B2, “Promysalin analogues and methods of use thereof” (Temple University—Of The Commonwealth System of Higher …, priority 2016, dated 2020).
Like-named read-outs stand apart in the source and are kept apart here.

Legend:
PaPiuA = experiment: Isothermal microcalorimetry titration; format: binding, Pseudomonas aeruginosa; settings: 25° C.
Experimental: Titrations were performed using 5 μl injections of 164 μM (using ε280=6 714 1 mol-1 cm-1 Li et al. Chemistry and Biology 2011) of the ligand in 17 μM of purified PaPiuA (Moynie et al. Antimicrobial Agents and Chemotherapy 2017) in the same buffer (50 mM sodium phosphate pH 7.5, 50 mM NaCl, 0.8% OctylPOE). The heats of dilution measured from injection of the ligands into the buffer were subtracted from the experimental data and titration curves were fitted to a single site binding using Origin software.

P. aeruginosa PA01 = experiment: IC50 assay (OD595, 24 h) against PA01; format: cell-based; settings: Pseudomonas aeruginosa
Experimental: (§1) P. aeruginosa PA01, and PA14 were gifts from Prof. George O'Toole (Dartmouth Medical School). Bacterial cultures were grown from freezer stocks overnight (16-24 hr) with shaking at 37° C. in Tryptic Soy Broth (TSB) media (10 mL). Growth curves were obtained for PA01 and PA14 to determine the OD of each strain in exponential growth; OD readings at 595 nm were taken every 10 minutes for 6 hours in a plate reader at 37° C. with shaking and repeated six times. (see FIGS. 6A and 6B) Compounds were serially diluted in sterile DI water from a stock solution (1 mM in 10% DMSO/90% H2O) to yield twenty-four test concentrations. Overnight cultures were diluted 1:100 in 5 mL fresh media and grown with shaking at 37° C. to an OD of 0.32 (see growth curves). Bacteria were diluted to a concentration of 0.004 using the following equation: (x μL O/N)(OD reading)=(0.004)(volume needed) and 100 μL was inoculated into each well of a flat-bottom 96-well plate (Corning 3370) containing 100 μL of compound solution. Plates were incubated statically at 37° C. for 24 hours, upon which time the OD at 595 nm was measured using a plate reader. IC50 values were calculated by fitting the OD readings vs. concentration with a 4 parameter logistic model. Controls were prepared by serially diluting a 10% DMSO/90% H2O the same as the compound stock solution. Compounds were tested in triplicate from separate O/N cultures and results averaged.

[1] = test system: P. aeruginosa (PA14, PA01); experiment: Zone of inhibition / growth in defined media; format: cell-based, Pseudomonas aeruginosa
Experimental: (§2) Bacterial strains (PA14, PAO1, KT2440, and RW10S1) were grown at 37° C. in TSB medium or on agar plates.
(§3) 100 μL overnight culture was added to TSB or M9 agar plates and bacterial lawns were ‘created’ using Roll & Grow Plating Beads. Compound stock solution 20 μL of a 250 μM solution, 10 μL of a 10 mg/mL gentamicin solution, and 20 μL of a 250 μM DMSO control (stock=10% DMSO/H2O) was absorbed into discs and allowed to dry. Discs were placed on the plates and incubated at 37° C. for 24 hours. Assay was run in triplicate from separate overnight cultures.

[2] = test system: pyoverdine production in P. putida KT2440; settings: cited from earlier work
Gram-positive bacteria = settings: Li et al., 2011; cited from earlier work
[3] = test system: P. putida (PP KT2440, PP RW10S); experiment: Zone of inhibition / growth in defined media; format: cell-based, Pseudomonas putida
Experimental: as §2, §3

CAS assay (CAS agar) = format: physicochemical; settings: at concentrations ranging from 6-100 μM; reduced affinity compared to EDTA
Experimental: CAS agar was prepared as described previously (Cordero, et al., PNAS, 2012, 109, 49, 29059). 10 μL of solution at given concentration were dosed onto plates and imaged after 24 hours. Stock solutions were made in 10% DMSO/H2O.

[4] = test system: P. aeruginosa strains PAO1 and PA14; settings: cited from earlier work
P. aeruginosa PA14 = experiment: IC50 assay (OD595, 24 h) against PA14; format: cell-based, Pseudomonas aeruginosa; settings: Pseudomonas aeruginosa
Experimental: (§4) P. aeruginosa PA01, and PA14 were gifts from Prof. George O'Toole (Dartmouth Medical School). Bacterial cultures were grown from freezer stocks overnight (16-24 hr) with shaking at 37° C. in Tryptic Soy Broth (TSB) media (10 mL). Growth curves were obtained for PA01 and PA14 to determine the OD of each strain in exponential growth; OD readings at 595 nm were taken every 10 minutes for 6 hours in a plate reader at 37° C. with shaking and repeated six times. (see FIGS. 6A and 6B)
as §1, with “Compounds” for “P. aeruginosa PA01, and PA14 were gifts from Prof. George O'Toole (Dartmouth Medical School). Bacterial cultures were grown from freezer stocks overnight (16-24 hr) with shaking at 37° C. in Tryptic Soy Broth (TSB) media (10 mL). Growth curves were obtained for PA01 and PA14 to determine the OD of each strain in exponential growth; OD readings at 595 nm were taken every 10 minutes for 6 hours in a plate reader at 37° C. with shaking and repeated six times. (see FIGS. 6A and 6B) Compounds”
Compounds were serially diluted in sterile DI water from a stock solution (10% DMSO/H2O) yielding 24 test concentrations. Bacteria were diluted to a final concentration of 0.004 from regrown overnight culture according to the following equation: (xμL bacterial culture)(OD reading)=(0.004)(total volume needed) and 100 μL was inoculated into each well of a flat-bottom 96-well plate (Corning 3370) containing 100 μL of compound solution. Plates were incubated statically at 37° C. for 24 hours upon which time OD at 595 nm was measured using a plate reader (Spectra Max 190). IC50 values were calculated using OD values and concentrations with a 4-parameter logistic model. Control experiments used a 10% DMSO/H2O stock serially diluted to the same 24 concentrations. Compounds were tested in triplicate from three independent overnight cultures.

[5] = Kaduskar et al., 2016; cited from earlier work
[6] = test system: P. aeruginosa strains PAO1 and PA14; experiment: Inhibitory activity against P. aeruginosa, strain not separated in text; format: cell-based, Pseudomonas aeruginosa; settings: compared with promysalin
Experimental: as §4
as §1, with “Compounds” for “P. aeruginosa PA01, and PA14 were gifts from Prof. George O'Toole (Dartmouth Medical School). Bacterial cultures were grown from freezer stocks overnight (16-24 hr) with shaking at 37° C. in Tryptic Soy Broth (TSB) media (10 mL). Growth curves were obtained for PA01 and PA14 to determine the OD of each strain in exponential growth; OD readings at 595 nm were taken every 10 minutes for 6 hours in a plate reader at 37° C. with shaking and repeated six times. (see FIGS. 6A and 6B) Compounds”
With a library of sixteen analogs in hand, all of the compounds were evaluated for inhibitory activity against P. aeruginosa strains PAO1 and PA14. […] The inhibition data supported our initial hypothesis that the conformation of promysalin is exquisitely linked to its inhibition of PA. Of our modifications to the proline structure, fluorination (9)—being the smallest steric perturbation, was the only compound with equipotency to that of promysalin.

[7] = average of EXPT 1-3, read-out: IC50 PA01 AVG
[8] = averages of three independent experiments, read-out: IC50 PA01
[9] = single trial 1, read-out: IC50 PA01 EXPT 1
[10] = single trial 2, read-out: IC50 PA01 EXPT 2
[11] = single trial 3, read-out: IC50 PA01 EXPT 3
[12] = average of EXPT 1-3, read-out: IC50 PA14 AVG
[13] = averages of three independent experiments, read-out: IC50 PA14
[14] = single trial 1, read-out: IC50 PA14 EXPT 1
[15] = single trial 2, read-out: IC50 PA14 EXPT 2
[16] = single trial 3, read-out: IC50 PA14 EXPT 3

Structure (SMILES)	IC50 (P. aeruginosa PA01; [7])	IC50 (P. aeruginosa PA01; [8])	IC50 (P. aeruginosa PA01; [9])	IC50 (P. aeruginosa PA01; [10])	IC50 (P. aeruginosa PA01; [11])	IC50 (P. aeruginosa PA14; [12])	IC50 (P. aeruginosa PA14; [13])	IC50 (P. aeruginosa PA14; [14])	IC50 (P. aeruginosa PA14; [15])	IC50 (P. aeruginosa PA14; [16])	inhibitory activity against P. aeruginosa, in words (SAR) [6]	further results
CCCCCC[C@H](CCCCC[C@@H](O)C(N)=O)OC(=O)[C@@H]1CC=CN1C(=O)c1ccccc1O [1 (2R,8R), promysalin]	4.12 µM	4.1 µM	4.44 µM	4.37 µM	3.54 µM	0.067 µM	0.067 µM	0.1 µM	0.02 µM	0.08 µM		binding to PiuA (isothermal microcalorimetry) (PaPiuA): no appreciable interaction; activity in TSB and glucose+Fe media [1]: active; production of pyoverdine in P. putida KT2440 [2]: inhibits; susceptibility of Gram-positive bacteria (Gram-positive bacteria): no susceptibility; zone of inhibition ([3]; M9, succinate as sole carbon source, iron-limiting, both PP strains including producing organism): clear zone of inhibition; activity in TSB and glucose+Fe media ([3]; P. putida): not P. putida; Fe^3+ chelation on CAS agar (CAS assay (CAS agar)): positive; activity against PA (literature) [4]: nM concentrations; IC50 (P. aeruginosa PA14; preliminary screening for probe design, read-out: IC50 in PA14): 0.063 µM; stability under mildly acidic conditions [5]: instability
CCCCCC[C@H](CCCCC[C@@H](O)C(N)=O)OC(=O)[C@@H]1CC(C)=CN1C(=O)c1ccccc1O [compound 10, (7R,13R)-14-amino-13-hydroxy-14-oxotetradecan-7-yl (S)-1-(2-hydroxybenzoyl)-4-methyl-2,3-dihydro-1H-pyrrole-2-carboxylate]	31.9 µM	32 µM	32.3 µM	32.5 µM	31.1 µM	11.4 µM	12 µM	10.8 µM	11.2 µM	12.2 µM	slightly tolerated	
CCCCCC[C@H](CCCCC[C@@H](O)C(N)=O)OC(=O)[C@@H]1CC=CN1C(=O)c1ccccc1OC [compound 11, (1R,7R)-1-carbamoyl-1-hydroxytridecan-7-yl (2S)-1-(2-methoxybenzoyl)-2,3-dihydro-1H-pyrrole-2-carboxylate]	56.7 µM	57 µM	59.3 µM	55.4 µM	55.5 µM	6.74 µM	6.7 µM	6.98 µM	5.86 µM	7.39 µM	an order of magnitude less potency	
CCCCCC[C@H](CCCCCCC(N)=O)OC(=O)[C@@H]1CC=CN1C(=O)c1ccccc1O [compound 18, (R)-14-amino-14-oxotetradecan-7-yl (S)-1-(2-hydroxybenzoyl)-2,3-dihydro-1H-pyrrole-2-carboxylate]	5.85 µM	5.8 µM	4.78 µM	5.64 µM	7.12 µM	0.035 µM	0.035 µM	0.02 µM	0.09 µM		fully retained	
CCCCCC[C@H](CCCCC[C@@H](OC)C(N)=O)OC(=O)[C@@H]1CC=CN1C(=O)c1ccccc1O [compound 19, (7R,13R)-14-amino-13-methoxy-14-oxotetradecan-7-yl (S)-1-(2-hydroxybenzoyl)-2,3-dihydro-1H-pyrrole-2-carboxylate]	38.3 µM	38 µM	29.2 µM	49.3 µM	47.6 µM	11.2 µM	11 µM	12.8 µM	5.72 µM	15 µM	decrease in potency	
CCCCCC[C@H](C/C=C/CC[C@@H](O)C(N)=O)OC(=O)[C@@H]1CC=CN1C(=O)c1ccccc1O [compound 21, (7R,13R,E)-14-amino-13-hydroxy-14-oxotetradec-9-en-7-yl (S)-1-(2-hydroxybenzoyl)-2,3-dihydro-1H-pyrrole-2-carboxylate]	8.34 µM	8.3 µM	10.1 µM	8.07 µM	6.81 µM	0.067 µM	0.067 µM	0.12 µM	0.05 µM	0.03 µM	equipotent	
